Key:
hexobarbital oxidase = experiment: in vivo hexobarbital oxidase activity: hexobarbital sleeping time in rats (enzyme induction); design: species or system male Wistar rats; details: 40 mg./kg. oral; for Difference % (period of sleep vs. control): 24 hours, vs. control group, difference greater than 25% regarded as biologically significant; for Period of sleep, min. ± standard error: hexobarbital sodium 40 mg./kg. i.v. 24 hours later, control 28.50 ± 3.12 min.
Method: The enzyme-inducing effects of the new compounds were examined under in vivo conditions by determining the hexobarbital oxidase activity. The active agents of the formula (I) were administered to male Wistar rats weighing 50 to 60 g. in oral dosages of 40 mg./kg. The effect appears 24 hours after the administration of the enzyme-inducing substance. At that time the inactivation rate of hexobarbital was determined by administering intravenously 40 mg./kg. of hexobarbital sodium into the animals and measuring the time elapsed between the administration and the reappearance of the righting reflex. The period of sleep observed for the animals treated with the new compounds was compared to that observed in the control group (the animals belonging to the control group were treated with carrier substance only).
24 Hours after the administration of the enzyme-inducing compounds the in vivo inactivation of hexobarbital accelerates, which is evidenced by the shortening of the period of sleep. The results were expressed as percentage differences with respect to the controls. On the basis of the preliminary experiments a difference greater than 25% was regarded to be biologically significant.

hexobarbital = experiment: biological half life-time of hexobarbital (UV spectrophotometry of plasma); details: half-life of hexobarbital in treated rats, control 38 min.

Row | SMILES | Difference % (period of sleep vs. control) (hexobarbital oxidase) | Period of sleep, min. ± standard error (hexobarbital oxidase) | T1/2 (biological half life-time of hexobarbital) (hexobarbital)
1 | CN1C(=O)CN(N=O)C(c2ccccc2)c2cc(Cl)ccc21 (stereo not drawn) [Example 1, 1-Methyl-4-nitroso-5-phenyl-7-chloro-1,3,4,5-tetrahydro-2H-1,4-benzodiazepine-2-one] | -42% | 16.53 ± 1.93 min | 
2 | O=NN1CC(=O)Nc2ccc([N+](=O)[O-])cc2C1c1ccccc1 (stereo not drawn) [Example 2, 4-Nitroso-5-phenyl-7-nitro-1,3,4,5-tetrahydro-2H-1,4-benzodiazepine-2-one] | -51% | 13.97 ± 2.10 min | 
3 | CN1C(=O)CN(N)C(c2ccccc2)c2cc(Cl)ccc21 (stereo not drawn) [Example 3, 1-Methyl-4-amino-5-phenyl-7-chloro-1,3,4,5-tetrahydro-2H-1,4-benzodiazepine-2-one] | -35% | 18.57 ± 2.06 min | 
4 | CN1C(=O)CN(N=Cc2ccccc2)C(c2ccccc2)c2cc(Cl)ccc21 (stereo not drawn) [Example 5, 1-Methyl-4-benzalamino-5-phenyl-7-chloro-1,3,4,5-tetrahydro-2H-1,4-benzodiazepine-2-one] | -58% | 11.96 ± 1.38 min | 26 min.
5 | CN1C(=O)CN(N=Cc2ccc(O)cc2)C(c2ccccc2)c2cc(Cl)ccc21 (stereo not drawn) [Example 10, 1-Methyl-4-(p-hydroxy-benzalamino)-5-phenyl-7-chloro-1,3,4,5-tetrahydro-2H-1,4-benzodiazepine-2-one] | -41% | 16.82 ± 1.84 min | 
6 | CN1C(=O)CN(NC(=O)CCl)C(c2ccccc2)c2cc(Cl)ccc21 (stereo not drawn) [Example 12, 1-Methyl-4-chloroacetamino-5-phenyl-7-chloro-1,3,4,5-tetrahydro-2H-1,4-benzodiazepine-2-one] | -33% | 19.10 ± 2.28 min | 
7 | CC(=O)NN1CC(=O)N(C)c2ccc(Cl)cc2C1c1ccccc1 (stereo not drawn) [Example 13, 1-Methyl-4-acetylamino-5-phenyl-7-chloro-1,3,4,5-tetrahydro-2H-1,4-benzodiazepine-2-one] | -29% | 20.24 ± 2.17 min | 

Source: patent US4021421A, “Benzodiazepine derivatives” (Richter Gedeon Vegyeszeti Gyar Rt., priority 1974, dated 1977)
